Data reported in ChEMBL document CHEMBL1153388, “N(epsilon)-thioacetyl-lysine-containing tri-, tetra-, and pentapeptides as SIRT1 and SIRT2 inhibitors” (J Med Chem, 2009).
Where a SMILES comes first, the peptide text is derived from it. [ ]: non-standard residue; d: D form. Lys(Thioacetyl) = CC(=S)NCCCC[C@H](N)C(=O)O

Columns and labels:
[1] = target: T1, NAD-dependent protein deacetylase sirtuin-1 (Homo sapiens, UniProt Q96EB6); assay: Inhibition of recombinant SIRT1 preincubated for 5 mins before addition of substrate measured after 1 hr by fluorescence-based assay
T1 sequence (Q96EB6 whole entry): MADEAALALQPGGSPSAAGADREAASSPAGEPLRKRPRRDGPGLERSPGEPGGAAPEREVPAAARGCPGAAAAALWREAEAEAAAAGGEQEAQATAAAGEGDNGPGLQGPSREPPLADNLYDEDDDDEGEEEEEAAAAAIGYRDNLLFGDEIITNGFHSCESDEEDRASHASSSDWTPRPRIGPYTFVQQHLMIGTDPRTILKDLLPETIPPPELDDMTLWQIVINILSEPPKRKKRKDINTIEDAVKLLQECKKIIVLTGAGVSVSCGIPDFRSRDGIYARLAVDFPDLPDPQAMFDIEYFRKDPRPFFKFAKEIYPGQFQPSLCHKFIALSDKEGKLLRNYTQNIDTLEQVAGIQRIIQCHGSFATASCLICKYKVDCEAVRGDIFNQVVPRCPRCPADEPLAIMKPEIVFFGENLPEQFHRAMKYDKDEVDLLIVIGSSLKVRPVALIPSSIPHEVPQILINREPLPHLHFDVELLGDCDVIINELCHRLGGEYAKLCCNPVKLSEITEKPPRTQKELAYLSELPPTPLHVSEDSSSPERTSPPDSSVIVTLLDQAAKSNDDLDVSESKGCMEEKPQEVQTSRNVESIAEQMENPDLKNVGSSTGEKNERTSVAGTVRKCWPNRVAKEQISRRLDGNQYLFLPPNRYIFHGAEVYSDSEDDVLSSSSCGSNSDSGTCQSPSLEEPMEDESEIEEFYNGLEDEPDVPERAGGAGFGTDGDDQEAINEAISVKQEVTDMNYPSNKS

[2] = target: T2, NAD-dependent protein deacetylase sirtuin-2 (Homo sapiens, UniProt Q8IXJ6); assay: Inhibition of recombinant SIRT2 preincubated for 5 mins before addition of substrate measured after 3 hrs by fluorescence-based assay
T2 sequence (Q8IXJ6 whole entry): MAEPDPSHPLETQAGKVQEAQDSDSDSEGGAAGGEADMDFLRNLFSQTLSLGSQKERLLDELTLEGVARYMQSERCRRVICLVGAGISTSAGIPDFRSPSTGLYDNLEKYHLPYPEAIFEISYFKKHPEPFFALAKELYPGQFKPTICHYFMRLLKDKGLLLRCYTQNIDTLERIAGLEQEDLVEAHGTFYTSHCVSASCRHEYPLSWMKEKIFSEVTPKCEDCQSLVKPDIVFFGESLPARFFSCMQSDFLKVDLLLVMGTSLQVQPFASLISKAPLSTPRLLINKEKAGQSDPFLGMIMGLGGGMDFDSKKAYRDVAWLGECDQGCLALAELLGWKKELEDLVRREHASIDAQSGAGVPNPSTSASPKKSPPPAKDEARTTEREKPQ

[3] = target: T3, NAD-dependent protein deacetylase sirtuin-1 (Homo sapiens) (UniProt Q96EB6); assay: Inhibition of recombinant SIRT1 at 200 uM preincubated for 5 mins before addition of substrate measured after 1 hr by fluorescence-based assay
T3 sequence (whole entry): T1 sequence (Q96EB6 whole entry)

[4] = target: T4, NAD-dependent protein deacetylase sirtuin-2 (Homo sapiens) (UniProt Q8IXJ6); assay: Inhibition of recombinant SIRT2 at 200 uM preincubated for 5 mins before addition of substrate measured after 3 hrs by fluorescence-based assay
T4 sequence (whole entry): T2 sequence (Q8IXJ6 whole entry)

[5] = target: T1, NAD-dependent protein deacetylase sirtuin-1; assay: Inhibition of GST-tagged SIRT1 expressed in Escherichia coli after 10 mins by Dixon plot
[6] = target: T2, NAD-dependent protein deacetylase sirtuin-2; assay: Inhibition of GST-tagged SIRT2 expressed in Escherichia coli after 60 mins by Dixon plot

CC(=S)NCCCC[C@H](NC(=O)[C@@H](N)CCCCN)C(=O)N[C@@H](CC(C)C)C(=O)O
IC50 [1]: 0.57 µM
IC50 [2]: 151 µM

CC(=S)NCCCC[C@H](NC(=O)[C@@H](N)CC(=O)O)C(=O)N[C@H](C(=O)O)[C@@H](C)O
IC50 [1]: 12 µM
IC50 [2]: 175 µM

CC(=S)NCCCC[C@H](NC(=O)[C@H](CC(=O)O)NC(=O)[C@@H](N)CO)C(=O)O
inhibition [3]: 11.8%
inhibition [4]: 13.9%

CC[C@H](C)[C@H](NC(=O)[C@@H](NC(=O)[C@H](CCCCNC(C)=S)NC(=O)[C@H](CC(=O)O)NC(=O)[C@H](C)N)[C@@H](C)O)C(=O)O (H-AD[Lys(Thioacetyl)]TI-OH)
IC50 [1]: 3.2 µM
IC50 [2]: 37.4 µM

CSCC[C@H](NC(=O)[C@H](CC(C)C)NC(=O)[C@H](CCCCNC(C)=S)NC(=O)[C@H](CCCCN)NC(=O)[C@H](C)N)C(=O)O (H-AK[Lys(Thioacetyl)]LM-OH)
IC50 [1]: 0.38 µM
IC50 [2]: 8.5 µM

CC[C@H](C)[C@H](NC(=O)[C@@H](NC(=O)[C@H](CCCCNC(C)=S)NC(=O)[C@@H](N)CC(=O)O)[C@@H](C)O)C(=O)O (H-D[Lys(Thioacetyl)]TI-OH)
IC50 [1]: 4.5 µM
IC50 [2]: 83.4 µM

CSCC[C@H](NC(=O)[C@H](CC(C)C)NC(=O)[C@H](CCCCNC(C)=S)NC(=O)[C@H](C)NC(=O)[C@@H](N)Cc1cnc[nH]1)C(=O)O (H-HA[Lys(Thioacetyl)]LM-OH)
IC50 [1]: 0.55 µM
IC50 [2]: 16.5 µM

CC[C@H](C)[C@H](NC(=O)[C@@H](NC(=O)[C@H](CCCCNC(C)=S)NC(=O)[C@H](CC(=O)O)NC(=O)[C@@H](N)Cc1cnc[nH]1)[C@@H](C)O)C(=O)O (H-HD[Lys(Thioacetyl)]TI-OH)
IC50 [1]: 4.3 µM
IC50 [2]: 31.1 µM

CSCC[C@H](NC(=O)[C@H](C)NC(=O)[C@H](CCCCNC(C)=S)NC(=O)[C@H](CCCCN)NC(=O)[C@@H](N)Cc1cnc[nH]1)C(=O)O (H-HK[Lys(Thioacetyl)]AM-OH)
IC50 [1]: 0.18 µM
IC50 [2]: 3.8 µM

CC(=S)NCCCC[C@H](NC(=O)[C@H](CCCCN)NC(=O)[C@@H](N)Cc1cnc[nH]1)C(=O)N[C@@H](CC(C)C)C(=O)O (H-HK[Lys(Thioacetyl)]L-OH)
IC50 [1]: 0.48 µM
IC50 [2]: 19.9 µM

CC(=S)NCCCC[C@H](NC(=O)[C@H](CCCCN)NC(=O)[C@@H](N)Cc1cnc[nH]1)C(=O)N[C@@H](CC(C)C)C(=O)N[C@@H](C)C(=O)O (H-HK[Lys(Thioacetyl)]LA-OH)
IC50 [1]: 0.9 µM
IC50 [2]: 33.3 µM

CSCC[C@H](NC(=O)[C@H](CC(C)C)NC(=O)[C@H](CCCCNC(C)=S)NC(=O)[C@H](CCCCN)NC(=O)[C@@H](N)Cc1cnc[nH]1)C(=O)O (H-HK[Lys(Thioacetyl)]LM-OH)
IC50 [5]: 10 µM
IC50 [6]: 10 µM
IC50 [1]: 0.33 µM
IC50 [2]: 6.4 µM

CC[C@H](C)[C@H](NC(=O)[C@@H](NC(=O)[C@H](CCCCNC(C)=S)NC(=O)[C@H](CCCCN)NC(=O)[C@@H](N)Cc1cnc[nH]1)[C@@H](C)O)C(=O)O (H-HK[Lys(Thioacetyl)]TI-OH)
IC50 [1]: 0.23 µM
IC50 [2]: 7.6 µM

CSCC[C@H](NC(=O)[C@H](CC(C)C)NC(=O)[C@H](CCCCNC(C)=S)NC(=O)[C@@H](N)CCCCN)C(=O)O (H-K[Lys(Thioacetyl)]LM-OH)
IC50 [1]: 0.33 µM
IC50 [2]: 49.8 µM

CC[C@H](C)[C@H](NC(=O)[C@@H](NC(=O)[C@H](CCCCNC(C)=S)NC(=O)[C@H](C)NC(=O)[C@@H](N)CO)[C@@H](C)O)C(=O)O (H-SA[Lys(Thioacetyl)]TI-OH)
IC50 [1]: 0.22 µM
IC50 [2]: 5.5 µM

CC[C@H](C)[C@H](NC(=O)[C@H](C)NC(=O)[C@H](CCCCNC(C)=S)NC(=O)[C@H](CC(=O)O)NC(=O)[C@@H](N)CO)C(=O)O (H-SD[Lys(Thioacetyl)]AI-OH)
IC50 [1]: 6.7 µM
IC50 [2]: 72.8 µM

CC[C@H](C)[C@H](NC(=O)[C@H](CC(C)C)NC(=O)[C@H](CCCCNC(C)=S)NC(=O)[C@H](CC(=O)O)NC(=O)[C@@H](N)CO)C(=O)O (H-SD[Lys(Thioacetyl)]LI-OH)
IC50 [1]: 23.2 µM
IC50 [2]: 238 µM

CSCC[C@H](NC(=O)[C@H](CC(C)C)NC(=O)[C@H](CCCCNC(C)=S)NC(=O)[C@H](CC(=O)O)NC(=O)[C@@H](N)CO)C(=O)O (H-SD[Lys(Thioacetyl)]LM-OH)
IC50 [1]: 10.8 µM
IC50 [2]: 92.9 µM

CC(=S)NCCCC[C@H](NC(=O)[C@H](CC(=O)O)NC(=O)[C@@H](N)CO)C(=O)N[C@H](C(=O)O)[C@@H](C)O (H-SD[Lys(Thioacetyl)]T-OH)
IC50 [1]: 11.1 µM
IC50 [2]: 44 µM

CC(=S)NCCCC[C@H](NC(=O)[C@H](CC(=O)O)NC(=O)[C@@H](N)CO)C(=O)N[C@H](C(=O)N[C@@H](C)C(=O)O)[C@@H](C)O (H-SD[Lys(Thioacetyl)]TA-OH)
IC50 [1]: 8.8 µM
IC50 [2]: 84.6 µM

CC[C@H](C)[C@H](NC(=O)[C@@H](NC(=O)[C@H](CCCCNC(C)=S)NC(=O)[C@H](CC(=O)O)NC(=O)[C@@H](N)CO)[C@@H](C)O)C(=O)O (H-SD[Lys(Thioacetyl)]TI-OH)
IC50 [1]: 5 µM
IC50 [2]: 29.1 µM

CSCC[C@H](NC(=O)[C@@H](NC(=O)[C@H](CCCCNC(C)=S)NC(=O)[C@H](CC(=O)O)NC(=O)[C@@H](N)CO)[C@@H](C)O)C(=O)O (H-SD[Lys(Thioacetyl)]TM-OH)
IC50 [1]: 1.4 µM
IC50 [2]: 10.6 µM

CC[C@H](C)[C@H](NC(=O)[C@@H](NC(=O)[C@H](CCCCNC(C)=S)NC(=O)[C@H](CCCCN)NC(=O)[C@@H](N)CO)[C@@H](C)O)C(=O)O (H-SK[Lys(Thioacetyl)]TI-OH)
IC50 [1]: 0.18 µM
IC50 [2]: 6.9 µM
